Source: patent US7179818B2, “Substituted aminoquinuclidine compounds” (Ortho-McNeil Pharmaceutical, Inc., priority 2002, dated 2007)
Counter-ions that a name gives are not always drawn. Like-named read-outs stand apart in the source and are kept apart here.

Legend:
μ-opioid receptor = target: T1, μ-opioid receptor (Rattus norvegicus, UniProt P33535); assay: Rat brain μ-opioid receptor binding assay ([3H]DAMGO)
T1 construct: from tissue; host or cells: rat (Wistar) forebrain homogenate, particulate preparation
Experimental: Male, Wistar rats (150–250 g, VAF, Chades River, Kingston, N.Y.) are killed by cervical dislocation and their brains removed and placed immediately in ice cold Tris HCl buffer (50 mM, pH 7.4). The forebrains are separated from the remainder of the brain by a coronal transection, beginning dorsally at the colliculi and passing ventrally through the midbrain-pontine junction. After dissection, the forebrains are homogenized in Tris buffer in a Teflon®-glass homogenizer. The homogenate is diluted to a concentration of 1 g of forebrain tissue per 100 mL Tris buffer and centrifuged at 39,000×G for 10 min. The pellet is resuspended in the same volume of Tris buffer with several brief pulses from a Polytron homogenizer. This particulate preparation is used for the μ-opioid binding assays. […] The tubes and filters are rinsed three times with 4 mL of 10 mM HEPES (pH 7.4) and the radioactivity associated with the filter circles determined using Formula 989 scintillation fluid (New England Nuclear, Boston, Mass.) in a scintillation counter.
The data are used to calculate either the % inhibition compared to control binding (when only a single concentration of test compound is evaluated) or a Ki value (when a range of concentrations is tested).
% Inhibition is calculated as: […]
(§1) Ki value is calculated using the LIGAND (Munson, P. J. and Rodbard, D., Anal. Biochem. 107: 220–239, 1980) data analysis program.

[1] = system: acetylcholine bromide-induced abdominal constriction response; assay: Mouse acetylcholine bromide-induced abdominal constriction assay (MAIT); type: in vivo; conditions: 150 μmole/Kg p.o., acetylcholine bromide 5.5 mg/kg i.p. 30 min later
Experimental: The mouse acetylcholine-induced abdominal constriction assay, as described by Collier et al. in Brit. […] The test drugs or appropriate vehicles were administered orally (p.o.) and 30 min later the animal received an intraperitoneal (i.p.) injection of 5.5 mg/kg acetylcholine bromide (Matheson, Coleman and Bell, East Rutherford, N.J.). The mice were then placed in groups of three into glass bell jars and observed for a ten min observation period for the occurrence of an abdominal constriction response (defined as a wave of constriction and elongation passing caudally along the abdominal wall, accompanied by a twisting of the trunk and followed by extension of the hind limbs). For compounds of the present invention, the percent inhibition of this response to a nociceptive stimulus (equated to °/analgesia) was calculated as follows:
[formula] • CAR: Control Animal Responses • DTAR: Drug-Treated Animal Responses

δ-opioid receptor = target: T2, δ-opioid receptor (Rattus norvegicus, UniProt P33533); assay: Rat brain δ-opioid receptor binding assay ([3H]DPDPE); conditions: for δ-Opioid Receptor Binding, Inhibition at 1 μM: single concentration 1 μM
T2 construct: from tissue; host or cells: rat (Wistar) forebrain homogenate, particulate preparation
Experimental: Male, Wistar rats (150–250 g, VAF, Charles River, Kingston, N.Y.) are killed by cervical dislocation, and their brains removed and placed immediately in ice cold Tris HCl buffer (50 mM, pH 7.4). The forebrains are separated from the remainder of the brain by a coronal transection, beginning dorsally at the colliculi and passing ventrally through the midbrain-pontine junction. After dissection, the forebrains are homogenized in Tris buffer in a Teflon®-glass homogenizer. The homogenate is diluted to a concentration of 1 g of forebrain tissue per 100 mL Tris buffer and centrifuged at 39,000×G for 10 min. The pellet is resuspended in the same volume of Tris buffer with several brief pulses from a Polytron homogenizer. This particulate preparation is used for the δ-opioid binding assays. Following incubation with the δ-selective peptide ligand [^3H]DPDPE at 25° C., the tube contents are filtered through Whatman GF/B filter sheets on a Brandel cell harvester. The tubes and filters are rinsed three times with 4 mL of 10 mM HEPES (pH 7.4), and the radioactivity associated with the filter circles determined using Formula 989 scintillation fluid (New England Nuclear, Boston, Mass.) in a scintillation counter.
The data are used to calculate either the % inhibition compared to control binding (when only a single concentration of test compound is evaluated) or a Ki value (when a range of concentrations are tested).
% Inhibition was calculated as: […]
as §1

[2] = rat forebrain membranes, [3H]DPDPE
[3] = rat forebrain membranes, [3H]DPDPE, 25° C., read-out: δ-Opioid Receptor Binding Ki
[4] = rat forebrain membranes, [3H]DAMGO, 25° C., read-out: μ-Opioid Receptor Binding Ki

T2 sequence (P33533 whole entry): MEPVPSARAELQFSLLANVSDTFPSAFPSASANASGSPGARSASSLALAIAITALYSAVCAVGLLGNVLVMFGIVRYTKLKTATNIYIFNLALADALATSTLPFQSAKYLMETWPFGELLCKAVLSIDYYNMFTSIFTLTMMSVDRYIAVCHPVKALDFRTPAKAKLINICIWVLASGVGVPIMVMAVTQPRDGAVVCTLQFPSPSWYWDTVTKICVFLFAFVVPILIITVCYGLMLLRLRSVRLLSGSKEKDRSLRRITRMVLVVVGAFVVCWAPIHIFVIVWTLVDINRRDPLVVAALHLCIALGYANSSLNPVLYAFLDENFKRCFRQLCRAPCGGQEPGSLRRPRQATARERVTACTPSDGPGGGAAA
T1 sequence (P33535 whole entry): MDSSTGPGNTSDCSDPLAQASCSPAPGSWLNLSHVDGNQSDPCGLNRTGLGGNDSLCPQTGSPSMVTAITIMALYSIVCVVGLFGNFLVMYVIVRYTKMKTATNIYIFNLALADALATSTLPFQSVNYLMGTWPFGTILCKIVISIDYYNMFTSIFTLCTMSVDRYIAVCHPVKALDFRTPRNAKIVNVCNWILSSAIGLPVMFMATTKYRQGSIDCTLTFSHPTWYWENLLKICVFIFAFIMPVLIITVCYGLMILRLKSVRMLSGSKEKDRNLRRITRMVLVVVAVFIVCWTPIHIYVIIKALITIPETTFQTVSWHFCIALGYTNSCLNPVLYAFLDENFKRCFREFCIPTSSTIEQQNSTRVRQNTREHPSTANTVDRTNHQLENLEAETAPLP

Compound	Ki (μ-opioid receptor)	MAIT % Inhibition [1]	Ki (δ-opioid receptor)	also measured
CCN(CC)C(=O)c1ccc(N(Cc2cccc(F)c2)C2CN3CCC2CC3)cc1 (centres unmarked) [Compound 19]	1120 nM	18.2%	5.5 nM	–
CCN(CC)C(=O)c1ccc(N(Cc2ccccc2F)C2CN3CCC2CC3)cc1 (centres unmarked) [Compound 18]	1160 nM	28.6%	39 nM	–
N-pyrrolidinyl-4-[(4-methoxyphenyl)-(1-azabicyclo[2.2.2]octan-3-amino)]benzamide Fumarate [Compound 14, N-pyrrolidinyl-4-[(4-methoxyphenyl)-(1-azabicyclo[2.2.2]octan-3-amino)]benzamide Fumarate [1:1]]	–	–	–	δ-Opioid Receptor Binding, Inhibition at 1 μM (δ-opioid receptor; [2]): <50%
CCN(CC)C(=O)c1ccc(N(Cc2cccc(Cl)c2)C2CN3CCC2CC3)cc1 (centres unmarked) [Compound 17]	914 nM	16.7%	21 nM	–
N,N-Diethyl-4-[(3-thiomethylphenyl)-(trans-2-methyl-1-azabicyclo[2.2.2]octan-3-amino)]benzamide Fumarate [Compound 10, N,N-Diethyl-4-[(3-thiomethylphenyl)-(trans-2-methyl-1-azabicyclo[2.2.2]octan-3-amino)]benzamide Fumarate [1:1.5]]	–	25%	–	–
N,N-Diethyl-4-[phenyl-(cis-2-methyl-1-azabicyclo[2.2.2]octan-3-amino)]benzamide [Compound 9]	–	20%	–	–
N-Morpholino-4-[phenyl-(1-azabicyclo[2.2.2]octan-3-amino)]benzamide Fumarate [Compound 15, N-Morpholino-4-[phenyl-(1-azabicyclo[2.2.2]octan-3-amino)]benzamide Fumarate [1:1]]	–	–	–	δ-Opioid Receptor Binding, Inhibition at 1 μM (δ-opioid receptor; [2]): <50%
CCN(CC)C(=O)c1ccc(N(Cc2ccccc2F)C2CN3CCC2CC3)cc1 (centres unmarked) (as salt: fumarate) (hydrate or solvate) [Compound 18]	–	–	–	melting point: 193 to 196 °C
N,N-Diethyl-4-[(3,5-dichlorophenyl)-(1-azabicyclo[2.2.2]octan-3-amino)]benzamide Hydrochloride [Compound 7, N,N-Diethyl-4-[(3,5-dichlorophenyl)-(1-azabicyclo[2.2.2]octan-3-amino)]benzamide Hydrochloride [1:1]]	–	–	–	δ-Opioid Receptor Binding, Inhibition at 1 μM (δ-opioid receptor; [2]): <50%
N,N-Diethyl-4-[phenyl-(1-azabicyclo[2.2.2]octan-3-amino)]-3-chlorobenzamide Fumarate [Compound 13, N,N-Diethyl-4-[phenyl-(1-azabicyclo[2.2.2]octan-3-amino)]-3-chlorobenzamide Fumarate [1:1]]	–	–	–	Ki (δ-opioid receptor; [3]): 880 nM
CCN(CC)C(=O)c1ccc(N(c2ccccc2)[C@H]2C3CCN(CC3)[C@@H]2C)cc1 [Compound 8, N,N-Diethyl-4-[phenyl-(trans-2-methyl-1-azabicyclo[2.2.2]octan-3-amino)]benzamide Fumarate Hydrate [1:1:0.5]]	–	–	–	Ki (μ-opioid receptor; [4]): 1340 nM; Ki (δ-opioid receptor; [3]): 26 nM
CCN(CC)C(=O)c1ccc(N(Cc2ccccc2)C2CN3CCC2CC3)cc1 (centres unmarked) (as salt: fumarate) (hydrate or solvate) [Compound 16, N,N-Diethyl-4-[phenylmethyl-(1-azabicyclo[2.2.2]octan-3-amino)]benzamide Fumarate Hydrate [1:1.5:1]]	–	–	–	melting point: 107 to 110 °C
CCN(CC)C(=O)c1ccc(N(Cc2ccccc2)[C@H]2CN3CCC2CC3)cc1 [Compound 20, (−)-(R)-N,N-Diethyl-4-[phenylmethyl-(1-azabicyclo[2.2.2]octan-3-amino)]benzamide Fumarate Hydrate [1:1.5:1]]	1240 nM	57.1%	11 nM	–
N,N-Diethyl-4-[phenyl-(1-azabicyclo[2.2.2]octan-3-amino)]-3-fluorobenzamide Fumarate [Compound 11, N,N-Diethyl-4-[phenyl-(1-azabicyclo[2.2.2]octan-3-amino)]-3-fluorobenzamide Fumarate [1:1]]	–	–	–	Ki (μ-opioid receptor; [4]): 8330 nM; Ki (δ-opioid receptor; [3]): 255 nM
CCN(CC)C(=O)c1ccc(N(Cc2cccc(Cl)c2)C2CN3CCC2CC3)cc1 (centres unmarked) (as salt: fumarate) [Compound 17]	–	–	–	melting point: 193 to 196 °C
CCN(CC)C(=O)c1ccc(N(Cc2ccccc2)C2CN3CCC2CC3)cc1 (centres unmarked) [Compound 16, N,N-Diethyl-4-[phenylmethyl-(1-azabicyclo[2.2.2]octan-3-amino)]benzamide Fumarate Hydrate [1:1.5:1]]	1920 nM	50%	50 nM	–
N,N-Diethyl-4-[phenyl-(1-azabicyclo[2.2.2]octan-3-amino)]benzamide Fumarate [Compound 1, N,N-Diethyl-4-[phenyl-(1-azabicyclo[2.2.2]octan-3-amino)]benzamide Fumarate [1:1]]	–	55.6%	–	–
N,N-Diethyl-4-[(3-trifluoromethylphenyl)-(1-azabicyclo[2.2.2]octan-3-amino)]benzamide Hydrochloride [Compound 4, N,N-Diethyl-4-[(3-trifluoromethylphenyl)-(1-azabicyclo[2.2.2]octan-3-amino)]benzamide Hydrochloride [1:1]]	–	–	–	δ-Opioid Receptor Binding, Inhibition at 1 μM (δ-opioid receptor; [2]): <50%
N,N-Diethyl-4-[phenyl-(1-azabicyclo[2.2.2]octan-3-amino)]-3-methylbenzamide Fumarate [Compound 12, N,N-Diethyl-4-[phenyl-(1-azabicyclo[2.2.2]octan-3-amino)]-3-methylbenzamide Fumarate [1:1]]	–	–	–	Ki (μ-opioid receptor; [4]): 10000 nM; Ki (δ-opioid receptor; [3]): 608 nM
CCN(CC)C(=O)c1ccc(N(Cc2ccccc2)[C@@H]2CN3CCC2CC3)cc1 [Compound 21, (+)-(S)-N,N-Diethyl-4-[phenylmethyl-(1-azabicyclo[2.2.2]octan-3-amino)]benzamide Fumarate Hydrate [1:1.5:1]]	2550 nM	35.720%	20 nM	–
